# Read-outs that look alike come from different tables or passages of the source.
# How the values were obtained:
# human serum albumin [1] = target: T1, human serum albumin (Homo sapiens, UniProt P02768); test: Fluorescence quenching of HSA in the presence of a competitor (warfarin or cangrelor); type: binding; parameters: purchased Sigma (St. Louis, MO, United States); details: for Kd: mean [95% CI], n = 5–6
# Procedure: (§1) The fluorescence measurements for albumin-drug complexes were performed using a LS50B spectrofluorometer (Perkin Elmer, Waltham, MA, United States) equipped with 1.0 cm quartz cell. The fluorescence spectra for HSA solution (2.5 µM in 0.1 M phosphate buffer, pH 7.4) were recorded in the range of wavelength from 250 to 500 nm, with the excitation at 280 nm and the emission set at 350 nm. The slit widths for excitation and emission beams were set to 5 and 10 nm, respectively. The Perkin-Elmer FL WinLab software v. 4.00.03 was used to collect the measured data. An appropriate buffer blank spectrum was subtracted from the measured spectra for fluorescence background correction. The optical density of HSA solution was below 0.1 and within the albumin concentration range of 0‐2.5 µM we observed a linear relationship between protein concentration and fluorescence intensity (p < 0.0001, R^2 = 0.995). In consequence, the albumin fluorescence was not corrected for the inner filter effect. All measurements, except a thermodynamic analysis of the binding of antiplatelet compounds to HSA were performed at 25°C after 30 s incubation of a sample with the examined compound. Stock and working solutions of all compounds used in the experiments were prepared in PBS buffer, pH 7.4. The protein concentration was determined by BCA method ([Smith et al., 1985]).
# […]. [Chaves et al., 2018]; [Manjushree and Revanasiddappa, 2019]). […].
# Furthermore, to determine whether one antiplatelet compound could be displaced from HSA by the other, the binding site marker experiments were repeated, i.e. by titration of HSA with PSB 0777 (0‒38.5 µM) in the presence of 2.5 µM cangrelor, instead of a marker.
# human serum albumin [2] = target: T1, human serum albumin; test: Synchronous fluorescence spectra of HSA; type: binding; parameters: purchased Sigma (St. Louis, MO, United States); details: 0‒38.5 μM
# Procedure: as §1
# To monitor changes in the polarity around the tyrosine and tryptophan residues of HSA evoked by the examined compounds, the synchronous fluorescence spectra of HSA (Δλ 15 nm and Δλ 60 nm) were recorded in the presence of increasing concentrations of PSB 0777 and cangrelor (0‒38.5 μM with 4 μM intervals).
# human serum albumin [3] = target: T1, human serum albumin; parameters: purchased Sigma (St. Louis, MO, United States); method as in Boncler et al., 2018; Wzorek et al., 2020; details: SPR; ref Boncler et al., 2018; Wzorek et al., 2020; read-out: affinity of binding to HSA (SPR); cited from earlier work
# human serum albumin [4] = target: T1, human serum albumin; test: Fluorescence quenching of HSA (Stern-Volmer, saturation binding, van't Hoff analysis); details: for Number of binding sites n / Kd: mean [95% CI]; for KA: KA = 1/KD; for decrease of HSA fluorescence: 2.5 µM HSA; for ΔH^θ / ΔS^θ: van't Hoff plot, 292, 302, 312 K
# Procedure: The fluorescence measurements for albumin-drug complexes were performed using a LS50B spectrofluorometer (Perkin Elmer, Waltham, MA, United States) equipped with 1.0 cm quartz cell. […] The slit widths for excitation and emission beams were set to 5 and 10 nm, respectively. The Perkin-Elmer FL WinLab software v. 4.00.03 was used to collect the measured data. An appropriate buffer blank spectrum was subtracted from the measured spectra for fluorescence background correction. […] In consequence, the albumin fluorescence was not corrected for the inner filter effect. All measurements, except a thermodynamic analysis of the binding of antiplatelet compounds to HSA were performed at 25°C after 30 s incubation of a sample with the examined compound. Stock and working solutions of all compounds used in the experiments were prepared in PBS buffer, pH 7.4.
# To obtain the binding parameters: dissociation constant (KD) and the number of binding sites per protein molecule (n), the experimental data were fit to a saturation binding curve using nonlinear regression analysis.
# The free energy change was estimated from the following relationship Eq. 4: ΔG^θ=ΔH^θ−TΔS^θ (4)
# human serum albumin [5] = target: T1, human serum albumin; test: Surface plasmon resonance binding to immobilized HSA (Biacore X)
# Procedure: Briefly, 100 µg of HSA was dissolved in 1 ml of 10 mM sodium acetate buffer, pH 4.0, and immobilized on the flow cell 1 of the sensor chip surface. No protein was immobilized on the flow cell 2, which was used as a control. […] The curves from three independent experiments were analyzed by global curve fitting of the entire data set using the Langmuir binding model with the BIAevaluation 4.1.1 software (Biacore AG, Uppsala, Sweden).
# [6] = system: platelets (platelet-rich plasma, isolated platelets); test: Inhibition of ADP-induced platelet activation (P-selectin/CD62P expression, flow cytometry); type: cell-based, human; details: 17 nM, 10 μM ADP; for decrease of ADP-dependent platelet activation: n = 5; for inhibition at 0.017 µM: Homo sapiens, Platelet, n = 6
# Procedure: Human blood was obtained from consecutively recruited healthy volunteers (simple random non-stratified sampling): four men and seven women; mean age 25 ± 5 years. All individuals provided their written informed consent to participate in the study. The exclusion criteria were the same as described previously ([Wzorek et al., 2020]). The study was approved by the Human Studies Committee of the Medical University of Lodz (Poland) and was conducted in accordance with the guidelines established by the Declaration of Helsinki. Whole blood was collected into polypropylene tubes with a blood-to-acid citrate dextrose solution (ACD) ratio of 6:1 (vol:vol).
# Human platelet-rich plasma (PRP) was prepared by centrifuging of anticoagulated whole blood at 190 x g for 12 min at 37°C. Platelet-poor plasma (PPP) was prepared by centrifuging the whole blood fraction left after removal of the PRP at 2500 x g for 12 min at 37°C. Platelet count in PRP was measured with automated haematology analyzer Sysmex XS-800i™ (Sysmex, Kobe, Japan) and adjusted to 1 × 10^8 cells per ml.
# Suspensions of isolated platelets were obtained from PRP separated from anticoagulated whole blood containing 50 ng/ml PGE1. PRP was centrifuged at 800 x g for 15 min at 37°C to obtain a platelet pellet. Platelet pellet was immediately suspended in the Tyrode buffer (134 mM NaCl, 12 mM NaHCO3, 2.9 mM KCl, 0.34 mM Na2HPO4, 1 mM MgCl2, 10 mM HEPES, 5 mM glucose, pH 7.4) and diluted to a count 1 × 10^8 per ml, as described above.
# The effect of plasma or HSA on inhibition of platelet activation by cangrelor was assessed by two-colour flow cytometry with the use of anti-CD61/PerCP (for platelet gating) and anti-CD62/PE (for detection of activated platelets). The antiplatelet activity of cangrelor was evaluated in PRP and suspensions of isolated platelets, when the effect of plasma was examined, or in isolated platelets containing 4% HSA, when the effect of albumin was studied. […] The activated platelets were stained with antibodies prior to fixation as described previously ([Wzorek et al., 2020]). A total of 10,000 events were acquired in each experiment using a FACSCanto II flow cytometer and surface expression of CD62P (P-selectin) in platelets was analysed using FACS/Diva v. 6.0 software (Becton-Dickinson, Franklin Lakes, NJ, United States).
# [7] = system: platelet function in whole blood; parameters: method as in Boncler et al., 2018; details: ref Boncler et al., 2018; cited from earlier work
# HSA = details: 2005, cited from earlier work
# [8] = concentration range 0–5 μM, 25°C
# [9] = highest drug concentration 38.5 µM, n = 3
# T1 sequence (P02768 25-609): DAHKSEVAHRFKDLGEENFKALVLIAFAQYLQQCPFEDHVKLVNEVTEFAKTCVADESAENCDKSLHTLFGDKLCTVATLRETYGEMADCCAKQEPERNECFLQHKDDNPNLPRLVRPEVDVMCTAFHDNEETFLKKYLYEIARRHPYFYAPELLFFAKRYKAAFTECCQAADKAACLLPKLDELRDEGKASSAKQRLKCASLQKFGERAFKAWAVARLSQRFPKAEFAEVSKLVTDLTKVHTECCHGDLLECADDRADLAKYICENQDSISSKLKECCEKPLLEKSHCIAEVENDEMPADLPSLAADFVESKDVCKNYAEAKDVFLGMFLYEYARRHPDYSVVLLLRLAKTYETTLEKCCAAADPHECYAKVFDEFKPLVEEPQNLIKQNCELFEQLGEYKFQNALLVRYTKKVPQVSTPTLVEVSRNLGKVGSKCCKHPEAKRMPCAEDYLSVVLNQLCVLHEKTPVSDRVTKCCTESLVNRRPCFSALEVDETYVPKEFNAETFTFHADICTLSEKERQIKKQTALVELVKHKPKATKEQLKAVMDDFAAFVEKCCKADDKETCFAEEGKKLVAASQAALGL
increase of dissociation constant in the presence of competitor compared to control (human serum albumin [1]; competitor warfarin) [fold],n with competitor (human serum albumin [1]; competitor warfarin 2.5 µM),n without competitor (human serum albumin [1]; control of the warfarin series),mean red shift of emission peak (human serum albumin [2]; Δλ 15 nm (tyrosine)) [nm],mean red shift of emission peak (human serum albumin [2]; Δλ 60 nm (tryptophan)) [nm],"Number of binding sites n (human serum albumin [4]; 0‒38.5 µM, n = 3)",ΔG^θ (human serum albumin [4]; 292 K) [kcal/mol],ΔG^θ (human serum albumin [4]; 302 K) [kcal/mol],KA (human serum albumin [4]; 302 K),ΔG^θ (human serum albumin [4]; 312 K) [kcal/mol],KA (human serum albumin [4]; 312 K),decrease of HSA fluorescence (human serum albumin [4]; [8]) [%],decrease of HSA fluorescence (human serum albumin [4]; [9]) [%],ΔH^θ (human serum albumin [4]) [kcal/mol],ΔS^θ (human serum albumin [4]) [J/mol * K],Compound,other results
1.4,0.59 [0.19‒0.99],0.69 [0.51‒0.88],0.5,0.8,0.83 [−0.22 to 1.87],-6.551,-6.733,6.43 [−5.24 to 1.99] × 10^4 [M^−1],-6.917,7.50 [−0.90 to 3.91] × 10^4 [M^−1],25,70,-1.21,76.49,Nc1nc(SCCc2ccc(S(=O)(=O)O)cc2)nc2c1ncn2[C@@H]1O[C@H](CO)[C@@H](O)[C@H]1O [PSB 0777],increase of dissociation constant in the presence of competitor compared to control (human serum albumin [1]; competitor cangrelor): 1.2 fold; n with competitor (human serum albumin [1]; competitor cangrelor 2.5 µM): 0.65 [0.39‒0.92]; n without competitor (human serum albumin [1]; control of the cangrelor series): 0.61 [0.32‒0.89]; Kd (human serum albumin [3]): 80.6 µM
2,1.39 [−0.07 to 2.85],1.10 [0.67‒1.52],0.3,2.1,0.99 [−0.29 to 2.27],-6.522,-6.812,10.31 [0.20‒6.97] × 10^4 [M^−1],-7.101,8.47 [0.19‒5.45] × 10^4 [M^−1],40,75,1.93,121.01,CSCCNc1nc(SCCC(F)(F)F)nc2c1ncn2[C@@H]1O[C@H](COP(=O)(O)OP(=O)(O)C(Cl)(Cl)P(=O)(O)O)[C@@H](O)[C@H]1O [cangrelor],"Kd (human serum albumin [1]; competitor warfarin 2.5 µM, read-out: KD with competitor): 16.8 µM; Kd (human serum albumin [1]; control of the warfarin series, read-out: KD without competitor): 8.3 µM; Kd (human serum albumin [5]; KA (equilibrium association constant), obtained from the binding rate constants): 16.3 µM; koff (human serum albumin [5]; human, pH 7.4): 0.0573 ± 0.000323 s⁻¹; kon (human serum albumin [5]; human, pH 7.4): 2820 ± 1.4e+06 M⁻¹ s⁻¹; decrease of ADP-dependent platelet activation ([6]; isolated platelets (compared with PRP)): 95%; decrease of ADP-dependent platelet activation ([6]; platelet-rich plasma): 77%; inhibition at 0.017 µM ([6]; control isolated platelets without HSA): 97%; inhibition at 0.017 µM ([6]; isolated platelets with 4% HSA): 74%; IC50 [7]: 0.017 µM; Kd (human serum albumin [4]; 0‒38.5 µM, nonlinear regression, n = 3): 10.9 µM; Kd (human serum albumin [4]; 292 K, n = 3): 14.5 µM; Kd (human serum albumin [4]; 302 K, n = 3): 9.7 µM; Kd (human serum albumin [4]; 312 K, n = 3): 11.8 µM"
,,,,,,,,,,,,,,,CC(C)Cc1ccc(C(C)C(=O)O)cc1 (centres unmarked) [ibuprofen],"KA (binding constant) reported earlier (HSA; used in the racemic form, ref Dufour and Dangles): 10^5–10^6 M^−1"
,,,,,,,,,,,,,,,CC(=O)CC(c1ccccc1)c1c(O)c2ccccc2oc1=O (centres unmarked) [warfarin],"KA reported earlier (HSA; ref Yamasaki et al., 1996, Watanabe et al., 2001, Dufour and Dangles): 10^4–10^5 M^−1"
